A short description of data set [1]: Radiochemical purity on storage at room temperature (analytical reverse phase-HPLC). The format is physicochemical. To be noted: stored at room temperature, for 5 hours after end of synthesis (FIG. 3). As for the experimental part: The radiochemical purity of the [^18F]FSPG composition was tested at the end of synthesis and up to 5 hours after being stored at room temperature. Analytical reverse phase-HPLC was performed on an Agilent 1260 HPLC system equipped with a 1200 Series Diode Array Detector and a Raytest GABI Star NaI (TL) scintillation detector. The following process parameters were used: • Column: Phenomenex Luna C-18 (2) 250 mm×4.6 mm (5 μm) • Mobile Phase A: 40 μM aqueous disodium phosphate • Mobile Phase B: Acetonitrile/Methanol/Water (45:45:10) (% w/v) • Flow rate: 1.5 ml/min • Gradient: • Initial: 100% Mobile Phase A, 0% Mobile Phase B • 2 min: 96% Mobile Phase A, 4% Mobile Phase B • 5 min: 88% Mobile Phase A, 12% Mobile Phase B • 15 min: 88% Mobile Phase A, 12% Mobile Phase B • 20 min: 40% Mobile Phase A, 60% Mobile Phase B • 22 min: 0% Mobile Phase A, 100% Mobile Phase B • 24 min: 0% Mobile Phase A, 100% Mobile Phase B • 25 min: 100% Mobile Phase A, 0% Mobile Phase B • 30 min: 100% Mobile Phase A, 0% Mobile Phase B • Total Run Time: 35 minutes • UV detector: 340 nm • [^18F]FSPG solution (80 μl) was mixed with o-phthaldialdehyde reagent solution (20 μl). The mixture sat for 1 min prior to the HPLC analysis.

The target in data set [2] is T1, cystine/glutamate antiporter (Xc^−) (Homo sapiens, UniProt Q9UPY5).
T1 construct: from tissue; host or cells: Human tissues and tumours in vivo (healthy volunteers; patients with NSCLC, hepatocellular carcinoma or brain tumours)
T1 sequence (Q9UPY5 1-501): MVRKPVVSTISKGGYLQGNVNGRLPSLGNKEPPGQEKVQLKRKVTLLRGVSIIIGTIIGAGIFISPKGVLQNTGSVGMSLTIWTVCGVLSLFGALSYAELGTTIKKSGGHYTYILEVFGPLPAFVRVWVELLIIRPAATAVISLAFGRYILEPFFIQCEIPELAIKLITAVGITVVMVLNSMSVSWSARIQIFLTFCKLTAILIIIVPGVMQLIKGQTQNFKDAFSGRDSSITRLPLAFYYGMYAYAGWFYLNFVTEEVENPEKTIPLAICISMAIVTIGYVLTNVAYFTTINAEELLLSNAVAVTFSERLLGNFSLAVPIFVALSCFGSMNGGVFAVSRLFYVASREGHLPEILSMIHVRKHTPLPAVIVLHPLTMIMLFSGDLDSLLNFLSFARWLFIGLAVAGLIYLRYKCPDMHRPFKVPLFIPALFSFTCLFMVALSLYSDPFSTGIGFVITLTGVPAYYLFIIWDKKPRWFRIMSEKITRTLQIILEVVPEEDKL
T1 sequence (P08195 1-529 partner): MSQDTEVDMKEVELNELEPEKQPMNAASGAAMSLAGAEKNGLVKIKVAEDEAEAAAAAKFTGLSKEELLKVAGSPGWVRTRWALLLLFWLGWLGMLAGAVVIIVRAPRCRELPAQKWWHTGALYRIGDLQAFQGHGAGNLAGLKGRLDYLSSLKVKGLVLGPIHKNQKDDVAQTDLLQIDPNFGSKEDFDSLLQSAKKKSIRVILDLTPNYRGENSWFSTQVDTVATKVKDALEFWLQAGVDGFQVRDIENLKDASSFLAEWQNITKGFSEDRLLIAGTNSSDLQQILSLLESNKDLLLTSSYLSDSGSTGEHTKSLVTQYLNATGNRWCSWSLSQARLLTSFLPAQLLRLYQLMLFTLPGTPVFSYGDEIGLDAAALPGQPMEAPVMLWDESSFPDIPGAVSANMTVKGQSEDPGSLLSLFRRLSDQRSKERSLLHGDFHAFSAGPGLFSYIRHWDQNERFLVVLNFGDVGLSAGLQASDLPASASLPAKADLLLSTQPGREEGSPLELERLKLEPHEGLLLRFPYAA
To be noted: PET; healthy volunteers and patients with non-small cell lung cancer, hepatocellular carcinoma, brain tumors; cited from earlier work.

Compound `N[C@@H](C[C@H](CCC[18F])C(=O)O)C(=O)O` [[^18F]FSPG, (S)-4-(3-^18F-fluoropropyl)-L-glutamic acid] gave a radiochemical purity maintained in data set [1] above 95%. Moreover, in data set [2], the background uptake result was “low background uptake in the brain, lung, and bowel”.

The record behind these values is US20260184667A1, “CGMP-COMPLIANT AUTOMATED [18F]FSPG PRODUCTION FOR CLINICAL EXAMINATION” (BOARD OF REGENTS, THE UNIVERSITY OF TEXAS SYSTEM, priority 2022, published 2026).
